{"source": "ChEMBL document CHEMBL5104148", "about": "“Discovery of derivatives from Spartina alterniflora-sourced moiety as xanthine oxidase inhibitors to lower uric acid” (Bioorg Med Chem Lett, 2022)", "key": {"[1]": {"assay": "Cytotoxicity against human L02 cells assessed as reduction in cell viability incubated for 24 hrs by MTT assay", "format": "toxicity, cell-based"}, "Mus musculus [2]": {"system": "Mus musculus", "assay": "Anti-hyperuricemic activity against hypoxanthine and oteracil potassium induced hyperuricemia in Kunming mouse model assessed as alanine aminotransferase level at 5 mg/kg, IG administered daily (reference value: 28.05 +/- 8.478 U/L)", "format": "functional"}, "Mus musculus [3]": {"system": "Mus musculus", "assay": "Anti-hyperuricemic activity against hypoxanthine and oteracil potassium induced hyperuricemia in Kunming mouse model assessed as uric acid level at 5 mg/kg, IG administered daily (reference value: 631.6 +/- 103.1 uM)", "format": "functional"}, "Mus musculus [4]": {"system": "Mus musculus", "assay": "Anti-hyperuricemic activity against hypoxanthine and oteracil potassium induced hyperuricemia in Kunming mouse model assessed as creatinine level at 5 mg/kg, IG administered daily (reference value: 59.12 +/- 7.198 uM)", "format": "functional"}, "Mus musculus [5]": {"system": "Mus musculus", "assay": "Anti-hyperuricemic activity against hypoxanthine and oteracil potassium induced hyperuricemia in Kunming mouse model assessed as blood urea nitrogen level at 5 mg/kg, IG administered daily (reference value: 53.09 +/- 1.937 mg/dl)", "format": "functional"}, "Mus musculus [6]": {"system": "Mus musculus", "assay": "Anti-hyperuricemic activity against hypoxanthine and oteracil potassium induced hyperuricemia in Kunming mouse model assessed as total bilirubin level at 5 mg/kg, IG administered daily (reference value: 12.05 +/- 4.92 uM)", "format": "functional"}, "[7]": {"assay": "Tmax in rat at 3 mg/kg, po measured after 24 hrs", "format": "ADME, organism-based", "conditions": "in vivo"}, "[8]": {"assay": "AUC(0 to infinity) in rat at 3 mg/kg, po measured after 24 hrs", "format": "ADME, organism-based", "set-up": "dose 3 mg/kg, time 24 hrs, route po", "conditions": "in vivo"}, "[9]": {"assay": "Clearance in rat at 1 mg/kg, iv measured after 24 hrs", "format": "ADME, organism-based", "conditions": "in vivo"}, "[10]": {"assay": "AUC(0 to infinity) in rat at 1 mg/kg, iv measured after 24 hrs", "format": "ADME, organism-based", "set-up": "dose 1 mg/kg, time 24 hrs, route iv", "conditions": "in vivo"}, "[11]": {"assay": "Volume of distribution in rat at 1 mg/kg, iv measured after 24 hrs", "format": "ADME, organism-based", "conditions": "in vivo"}, "[12]": {"assay": "Elimination half life in rat at 3 mg/kg, po measured after 24 hrs", "format": "ADME, organism-based", "conditions": "in vivo, read-out: beta t1/2 (converted)"}, "[13]": {"assay": "Cmax in rat at 3 mg/kg, po measured after 24 hrs", "format": "ADME, organism-based", "set-up": "time 24 hrs, dose 3 mg/kg, route po", "conditions": "in vivo"}, "[14]": {"assay": "AUC(0 to t) in rat at 1 mg/kg, iv measured after 24 hrs", "format": "ADME, organism-based", "set-up": "dose 1 mg/kg, time 24 hrs, route iv", "conditions": "in vivo"}, "[15]": {"assay": "Cmax in rat at 1 mg/kg, iv measured after 24 hrs", "format": "ADME, organism-based", "set-up": "time 24 hrs, dose 1 mg/kg, route iv", "conditions": "in vivo"}, "[16]": {"assay": "Elimination half life in rat at 1 mg/kg, iv measured after 24 hrs", "format": "ADME, organism-based", "conditions": "in vivo, read-out: beta t1/2 (converted)"}, "[17]": {"assay": "Tmax in rat at 1 mg/kg, iv measured after 24 hrs", "format": "ADME, organism-based", "conditions": "in vivo"}, "[18]": {"assay": "AUC(0 to t) in rat at 3 mg/kg, po measured after 24 hrs", "format": "ADME, organism-based", "set-up": "dose 3 mg/kg, time 24 hrs, route po", "conditions": "in vivo"}, "[19]": {"assay": "Oral bioavailability in rat at 3 mg/kg measured after 24 hrs", "format": "ADME, organism-based", "conditions": "in vivo"}, "[20]": {"target": "Xanthine dehydrogenase/oxidase (Homo sapiens, UniProt P47989)", "sequence (P47989 whole entry)": "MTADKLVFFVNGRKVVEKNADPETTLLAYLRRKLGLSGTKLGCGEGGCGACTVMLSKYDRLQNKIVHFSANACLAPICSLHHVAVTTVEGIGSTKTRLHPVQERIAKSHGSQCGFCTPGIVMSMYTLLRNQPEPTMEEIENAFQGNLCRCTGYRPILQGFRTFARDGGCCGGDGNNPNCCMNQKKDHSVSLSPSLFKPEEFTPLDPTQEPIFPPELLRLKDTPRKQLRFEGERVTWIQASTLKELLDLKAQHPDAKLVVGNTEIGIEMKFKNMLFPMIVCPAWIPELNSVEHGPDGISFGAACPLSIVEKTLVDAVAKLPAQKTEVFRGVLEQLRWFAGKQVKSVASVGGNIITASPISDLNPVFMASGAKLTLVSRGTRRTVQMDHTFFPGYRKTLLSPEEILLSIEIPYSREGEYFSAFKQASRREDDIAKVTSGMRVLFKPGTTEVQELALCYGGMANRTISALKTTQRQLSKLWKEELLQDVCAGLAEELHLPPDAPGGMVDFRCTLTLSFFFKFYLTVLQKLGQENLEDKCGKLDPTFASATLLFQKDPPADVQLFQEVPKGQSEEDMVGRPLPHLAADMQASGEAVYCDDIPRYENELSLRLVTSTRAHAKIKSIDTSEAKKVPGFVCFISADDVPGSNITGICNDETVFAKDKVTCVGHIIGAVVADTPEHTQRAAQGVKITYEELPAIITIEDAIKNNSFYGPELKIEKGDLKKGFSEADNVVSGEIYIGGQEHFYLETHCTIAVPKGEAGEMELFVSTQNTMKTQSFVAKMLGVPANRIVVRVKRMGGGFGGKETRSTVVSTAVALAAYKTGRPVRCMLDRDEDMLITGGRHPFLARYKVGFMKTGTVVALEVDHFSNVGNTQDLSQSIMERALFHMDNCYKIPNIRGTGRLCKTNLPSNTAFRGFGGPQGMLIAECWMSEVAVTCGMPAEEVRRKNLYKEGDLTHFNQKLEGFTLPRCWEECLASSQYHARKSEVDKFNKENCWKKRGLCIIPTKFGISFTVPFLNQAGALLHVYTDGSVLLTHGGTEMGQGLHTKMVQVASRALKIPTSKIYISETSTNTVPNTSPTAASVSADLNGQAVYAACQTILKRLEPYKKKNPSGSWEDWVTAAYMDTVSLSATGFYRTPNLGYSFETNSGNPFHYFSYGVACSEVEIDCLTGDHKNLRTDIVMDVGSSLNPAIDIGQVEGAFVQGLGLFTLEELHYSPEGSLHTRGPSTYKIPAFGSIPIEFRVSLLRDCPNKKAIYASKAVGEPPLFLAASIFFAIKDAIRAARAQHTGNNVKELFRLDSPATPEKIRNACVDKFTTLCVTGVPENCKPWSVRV", "assay": "Inhibition of xanthine oxidase (unknown origin) at 10 uM relative to control"}}}
{"smiles": "CCCCS(=O)(=O)Oc1ccc(/C=C/C(=O)Nc2ccccc2C)cc1OC", "values": [{"measurement": "CC50 at 24 h", "setting": "[1]", "value": 56.1, "unit": "µM"}]}
{"smiles": "CCCCS(=O)(=O)Oc1ccc(/C=C/C(=O)Nc2ccc(Cl)cc2)cc1OC", "values": [{"measurement": "CC50 at 24 h", "setting": "[1]", "value": 81.2, "unit": "µM"}]}
{"smiles": "CCCCS(=O)(=O)Oc1ccc(/C=C/C(=O)Nc2cccc(C)c2)cc1OC", "values": [{"measurement": "CC50 at 24 h", "setting": "[1]", "value": 33.6, "unit": "µM"}]}
{"smiles": "COc1cc(/C=C/C(=O)Nc2cccc(C)c2)ccc1OS(=O)(=O)c1ccc(Cl)cc1", "values": [{"measurement": "CC50 at 24 h", "setting": "[1]", "value": 73.5, "unit": "µM"}, {"measurement": "Activity", "setting": "Mus musculus [2]", "value": 25.21, "unit": "U/L"}, {"measurement": "Activity", "setting": "Mus musculus [3]", "value": 552.9, "unit": "µM"}, {"measurement": "Activity", "setting": "Mus musculus [4]", "value": 45.88, "unit": "µM"}, {"measurement": "Activity", "setting": "Mus musculus [5]", "value": 33.45, "unit": "mg/dL"}, {"measurement": "Activity", "setting": "Mus musculus [6]", "value": 8.296, "unit": "µM"}]}
{"smiles": "CCCCS(=O)(=O)Oc1ccc(/C=C/C(=O)OCCC)cc1OC", "values": [{"measurement": "CC50 at 24 h", "setting": "[1]", "value": 61.8, "unit": "µM"}]}
{"smiles": "CCCCS(=O)(=O)Oc1ccc(/C=C/C(=O)Nc2ccc(C)cc2)cc1OC", "values": [{"measurement": "CC50 at 24 h", "setting": "[1]", "value": 26.8, "unit": "µM"}]}
{"smiles": "CCCCS(=O)(=O)Oc1ccc(/C=C/C(=O)Nc2ccccc2I)cc1OC", "values": [{"measurement": "CC50 at 24 h", "setting": "[1]", "value": 24.5, "unit": "µM"}]}
{"smiles": "CCCCOC(=O)/C=C/c1ccc(OS(=O)(=O)CCCC)c(OC)c1", "values": [{"measurement": "CC50 at 24 h", "setting": "[1]", "value": 115, "unit": "µM"}]}
{"smiles": "COc1cc(/C=C/C(=O)OCC(C)C)ccc1OS(=O)(=O)c1ccc(Cl)cc1", "values": [{"measurement": "CC50 at 24 h", "setting": "[1]", "value": 102, "unit": "µM"}]}
{"smiles": "CCOC(=O)/C=C/c1ccc(OS(=O)(=O)c2ccc(Cl)cc2)c(OC)c1", "values": [{"measurement": "CC50 at 24 h", "setting": "[1]", "value": 137, "unit": "µM"}]}
{"smiles": "COC(=O)/C=C/c1ccc(OS(=O)(=O)c2ccc(Cl)cc2)c(OC)c1", "values": [{"measurement": "CC50 at 24 h", "setting": "[1]", "value": 99.5, "unit": "µM"}]}
{"smiles": "CCCOC(=O)/C=C/c1ccc(OS(=O)(=O)c2ccc(Cl)cc2)c(OC)c1", "values": [{"measurement": "CC50 at 24 h", "setting": "[1]", "value": 150, "unit": "µM"}]}
{"smiles": "CCCCOC(=O)/C=C/c1ccc(OS(=O)(=O)c2ccc(Cl)cc2)c(OC)c1", "values": [{"measurement": "CC50 at 24 h", "setting": "[1]", "value": 14, "unit": "µM"}]}
{"smiles": "COc1cc(/C=C/C(=O)Nc2ccc(I)cc2)ccc1OS(=O)(=O)c1ccc(Cl)cc1", "values": [{"measurement": "CC50 at 24 h", "setting": "[1]", "value": 39.4, "unit": "µM"}]}
{"smiles": "CCCCS(=O)(=O)Oc1ccc(/C=C/C(=O)Nc2ccccc2)cc1OC", "values": [{"measurement": "CC50 at 24 h", "setting": "[1]", "value": 3.32, "unit": "µM"}]}
{"smiles": "CCCCS(=O)(=O)Oc1ccc(/C=C/C(=O)OCC(C)C)cc1OC", "values": [{"measurement": "CC50 at 24 h", "setting": "[1]", "value": 63.8, "unit": "µM"}]}
{"smiles": "CCCCS(=O)(=O)Oc1ccc(/C=C/C(=O)Nc2ccccc2Br)cc1OC", "values": [{"measurement": "CC50 at 24 h", "setting": "[1]", "value": 5, "unit": "µM"}]}
{"smiles": "CCCCS(=O)(=O)Oc1ccc(/C=C/C(=O)OCC)cc1OC", "values": [{"measurement": "Tmax", "setting": "[7]", "value": 8.34, "unit": "min"}, {"measurement": "CC50 at 24 h", "setting": "[1]", "value": 14.4, "unit": "µM"}, {"measurement": "AUC(0-inf)", "setting": "[8]", "value": 1640, "unit": "ng·h/mL"}, {"measurement": "clearance", "setting": "[9]", "value": 19.8, "unit": "mL/min/kg"}, {"measurement": "AUC(0-inf)", "setting": "[10]", "value": 851, "unit": "ng·h/mL"}, {"measurement": "Vd", "setting": "[11]", "value": 0.996, "unit": "L/kg"}, {"measurement": "half-life", "setting": "[12]", "value": 79.2, "unit": "min"}, {"measurement": "Cmax", "setting": "[13]", "value": 1030, "unit": "ng/mL"}, {"measurement": "Activity", "setting": "Mus musculus [2]", "value": 29.23, "unit": "U/L"}, {"measurement": "AUC(0-t) at 24 h", "setting": "[14]", "value": 847, "unit": "ng·h/mL"}, {"measurement": "Cmax", "setting": "[15]", "value": 1930, "unit": "ng/mL"}, {"measurement": "half-life", "setting": "[16]", "value": 34.2, "unit": "min"}, {"measurement": "Activity", "setting": "Mus musculus [3]", "value": 295, "unit": "µM"}, {"measurement": "Tmax", "setting": "[17]", "value": 6, "unit": "min"}, {"measurement": "AUC(0-t) at 24 h", "setting": "[18]", "value": 1620, "unit": "ng·h/mL"}, {"measurement": "bioavailability", "setting": "[19]", "value": 63.7, "unit": "%"}, {"measurement": "Activity", "setting": "Mus musculus [4]", "value": 34.38, "unit": "µM"}, {"measurement": "Activity", "setting": "Mus musculus [5]", "value": 30.48, "unit": "mg/dL"}, {"measurement": "Activity", "setting": "Mus musculus [6]", "value": 8.557, "unit": "µM"}]}
{"smiles": "CCCCS(=O)(=O)Oc1ccc(/C=C/C(=O)Nc2ccc(CC)cc2)cc1OC", "values": [{"measurement": "CC50 at 24 h", "setting": "[1]", "value": 89, "unit": "µM"}]}
{"smiles": "CCCCS(=O)(=O)Oc1ccc(/C=C/C(=O)OC)cc1OC", "values": [{"measurement": "CC50 at 24 h", "setting": "[1]", "value": 208, "unit": "µM"}]}
{"smiles": "Oc1ncnc2[nH]ncc12", "note": "[ALLOPURINOL]", "values": [{"measurement": "CC50 at 24 h", "setting": "[1]", "value": 6.84, "unit": "µM"}, {"measurement": "Activity", "setting": "Mus musculus [2]", "value": 32.11, "unit": "U/L"}, {"measurement": "Activity", "setting": "Mus musculus [3]", "value": 309.2, "unit": "µM"}, {"measurement": "Activity", "setting": "Mus musculus [4]", "value": 71.97, "unit": "µM"}, {"measurement": "Activity", "setting": "Mus musculus [5]", "value": 43.64, "unit": "mg/dL"}, {"measurement": "Activity", "setting": "Mus musculus [6]", "value": 10.36, "unit": "µM"}, {"measurement": "inhibition at 10 µM", "setting": "[20]", "value": 45.6, "unit": "%"}]}
